Source: publication PMC6573034 (Nature Communications, 2019)

Tests used:
SfMCT [1] = target: T1, SfMCT (Syntrophobacter fumaroxidans, UniProt A0LNN5); assay: Uptake of [14C]L-lactate and other radiolabeled monocarboxylates into SfMCT expressing E. coli JA202; assay type: cell-based
T1 construct: expressed in transfected cells; host or cells: E. coli JA202 (MC4100 glcA::cat lldP::kan), plasmid pEXT20-SfMCT-3C-10His
T1 sequence (A0LNN5 1-412): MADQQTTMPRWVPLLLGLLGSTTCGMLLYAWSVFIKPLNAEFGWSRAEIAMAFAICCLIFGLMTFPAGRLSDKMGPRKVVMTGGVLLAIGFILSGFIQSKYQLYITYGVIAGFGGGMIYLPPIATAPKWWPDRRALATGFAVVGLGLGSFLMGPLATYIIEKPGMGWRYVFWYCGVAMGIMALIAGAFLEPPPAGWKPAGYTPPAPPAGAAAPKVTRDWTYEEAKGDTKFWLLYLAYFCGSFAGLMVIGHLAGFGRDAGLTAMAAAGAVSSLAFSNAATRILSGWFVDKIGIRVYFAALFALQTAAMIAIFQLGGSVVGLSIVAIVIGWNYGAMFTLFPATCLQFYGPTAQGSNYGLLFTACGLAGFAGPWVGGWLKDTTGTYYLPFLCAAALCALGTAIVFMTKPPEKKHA
Method: (§1) The cultures were grown at 37 °C and 180 r.p.m. in an incubator shaker (Multitron, Infors HT). Protein expression was induced at OD600 ~0.5 by addition of IPTG to a final concentration of 0.25 mM. After 4 h, bacteria were pelleted (5,200 × g, 10 min, room temperature) and resuspended in uptake buffer (20 mM Bis-Tris propane-HCl (pH 6.7), 250 mM KCl) to a bacteria density of OD600 12. […] Furthermore, [3-3 H] propionic acid sodium salt ([^3H]propionate, American Radiolabeled Chemicals, specific activity 30 Ci/mmol), n-[2,3-3 H] butyric acid sodium salt ([^3H]butyrate, American Radiolabeled Chemicals, specific activity 120 Ci/mmol), and [1–14 C] pyruvic acid sodium salt ([^14C]pyruvate, specific activity 0.055 Ci/mmol American Radiolabeled Chemicals) were also used for transport experiments. […] Uptake experiments were performed in 2 ml reaction tubes (Eppendorf) at 30 °C under agitation (1,000 r.p.m., Thermomixer compact, Eppendorf). […] Bacteria were immediately pelleted by centrifugation (21,000 × g, 4 min, room temperature) and washed two times with 900 μl stop buffer. Finally, bacteria were lyzed in 50 μl 5% (w/v) sodium dodecylsulfate and transferred into a white 96-well plate (Optiplate, PerkinElmer). 150 µl of scintillation cocktail (MicroScint 40, PerkinElmer) were added before measuring each reaction for 2 min with a scintillation counter (TopCount NXT, PerkinElmer). For data analysis, the signal of the empty vector was subtracted from the transporter signal. […] Cpm values of each experiment were normalized with respect to the determined upper plateau value, i.e., the fitted upper plateau value corresponds to 100%. The arithmetic average of three independent experiments was calculated. Three independent and normalized pH-dependence curves were then averaged. For data analysis Prism6 (GraphPad Software) was used. […] Equal amounts of bacteria expressing SfMCT variants were loaded on 14% SDS/polyacrylamide gels. His-tagged transporters were detected using an anti-His5 (Qiagen, catalogue number 34660, primary antibody) at a dilution of 1:3,000 and a goat anti-mouse IgG (H + L) HRP conjugate antibody (Biorad, catalogue number 172-1011, secondary antibody) at a dilution of 1:2,500.

MCT2 (SLC16A7) = conditions: MCT2, L-lactate; cited from earlier work
SfMCT [2] = target: T1, SfMCT; assay type: cell-based; conditions: competitor 1 mM
Method: as §1

SfMCT [3] = target: T1, SfMCT; assay: Uptake of [14C]L-lactate and other radiolabeled monocarboxylates into SfMCT expressing E. coli JA202; assay type: cell-based; conditions: for Net uptake of [14C]L-lactate through SfMCT (cpm): SfMCT minus vector
SfMCT [4] = target: T1, SfMCT; assay: Micro pH electrode-based transport assay, SfMCT-expressing E. coli JA202; assay type: cell-based; conditions: 10 mM compound (pH 6.5) added to bacterial suspension pH 6.7
Method: A measuring set up as previously reported[18] was used for micro pH electrode-based transport measurements. SfMCT was expressed in E. coli JA202 (MC4100 glcA::cat lldP::kan)[15] as described for uptake experiments. After expression, bacteria were pelleted (5,200 × g, 10 min, room temperature), washed twice in assay solution (250 mM KCl, 1 mM MgSO4, 2 mM CaCl2; 5,200 × g, 10 min, room temperature) and finally resuspended in assay solution to a bacterial density of OD600 15. Compounds that were assayed for proton-coupled transport were dissolved in assay solution and the pH was adjusted to 6.5. 800 µl of bacteria suspension were transferred into a 2 ml reaction tube (Eppendorf) and the pH value of the bacterial suspension (extracellular medium) was measured using a micro pH electrode with integrated temperature sensor (InLab Micro Pro, Mettler Toledo) under constant stirring. The pH of the bacterial suspension was adjusted to pH 6.7 using potassium hydroxide and hydrochloric acid. The SevenCompact pH-meter (Mettler Toledo), together with LabX direct pH 2.3 software (Mettler Toledo), were used for automatic recording in 15 s intervals. Measurements were initiated by adding 10 mM of the corresponding compound to the bacterial suspension. All experiments were performed at 24 °C.

Compound: C[C@H](O)C(=O)O [L-lactate]
- Uptake of radioligand by SfMCT (cpm) (SfMCT [1]; 0.1 µCi radiolabeled monocarboxylate, SfMCT-overexpressing bacteria): 10963 cpm
- Uptake of [14C]L-lactate by SfMCT (cpm) (SfMCT [1]; Time 30 min): 8927.33 cpm
- Net uptake of [14C]L-lactate through SfMCT (cpm) (SfMCT [1]; Time 30 min, SfMCT minus vector): 7196.33 cpm
- Uptake of [14C]L-lactate (SfMCT [1]; [L-lactate] 500 µM): 253.382 pmol
- Uptake of [14C]L-lactate (SfMCT [1]; [L-lactate] 750 µM): 287.925 pmol
- Km (MCT2 (SLC16A7)): ~700 µM
- competition with [14C]L-lactate uptake (in words) (SfMCT [2]): strongest competition
- Uptake of [14C]L-lactate by SfMCT (cpm) (SfMCT [3]; Time 5 min): 1353.33 cpm
- Net uptake of [14C]L-lactate through SfMCT (cpm) (SfMCT [3]; Time 5 min): 969 cpm
- Uptake of [14C]L-lactate by SfMCT (cpm) (SfMCT [3]; Time 10 min): 2978.67 cpm
- Net uptake of [14C]L-lactate through SfMCT (cpm) (SfMCT [3]; Time 10 min): 2373.33 cpm
- Uptake of [14C]L-lactate by SfMCT (cpm) (SfMCT [3]; Time 20 min): 6015 cpm
- Net uptake of [14C]L-lactate through SfMCT (cpm) (SfMCT [3]; Time 20 min): 4812 cpm
- Uptake of [14C]L-lactate by SfMCT (cpm) (SfMCT [3]; Time 40 min): 11074.3 cpm
- Net uptake of [14C]L-lactate through SfMCT (cpm) (SfMCT [3]; Time 40 min): 8600.33 cpm
- Uptake of [14C]L-lactate by SfMCT (cpm) (SfMCT [3]; Time 50 min): 12325 cpm
- Net uptake of [14C]L-lactate through SfMCT (cpm) (SfMCT [3]; Time 50 min): 9196.33 cpm
- Uptake of [14C]L-lactate by SfMCT (cpm) (SfMCT [3]; Time 60 min): 13920.3 cpm
- Net uptake of [14C]L-lactate through SfMCT (cpm) (SfMCT [3]; Time 60 min): 9981.67 cpm
- Uptake of [14C]L-lactate by SfMCT (cpm) (SfMCT [3]; Time 75 min): 16014.3 cpm
- Net uptake of [14C]L-lactate through SfMCT (cpm) (SfMCT [3]; Time 75 min): 10856.3 cpm
- Uptake of [14C]L-lactate by SfMCT (cpm) (SfMCT [3]; Time 90 min): 17840 cpm
- Net uptake of [14C]L-lactate through SfMCT (cpm) (SfMCT [3]; Time 90 min): 10528.3 cpm
- Uptake of [14C]L-lactate (SfMCT [3]; [L-lactate] 10 µM): 8.303 pmol
- Uptake of [14C]L-lactate (SfMCT [3]; [L-lactate] 50 µM): 59.1431 pmol
- Uptake of [14C]L-lactate (SfMCT [3]; [L-lactate] 100 µM): 109.881 pmol
- Uptake of [14C]L-lactate (SfMCT [3]; [L-lactate] 175 µM): 163.284 pmol
- Uptake of [14C]L-lactate (SfMCT [3]; [L-lactate] 250 µM): 201.312 pmol
- Uptake of [14C]L-lactate (SfMCT [3]; [L-lactate] 625 µM): 266.195 pmol
- proton-coupled transport, change of extracellular pH (in words) (SfMCT [4]): immediate pH increase
